pIC50: −log10 of the molar value. Active and inactive are the calls of the source. No cut-off for these calls is given here.
How the values were obtained:
[1] = system: HL-60 (human); test: Cytotoxicity against human HL-60 cells at 100 uM by MTT assay
[2] = system: HL-60 (human); test: Cytotoxicity against human HL-60 cells by MTT assay
[3] = system: HL-60 (human); test: Effect on Bcl-2 expression in human HL-60 cells at 10 uM by immunoblot analysis
[4] = system: HL-60 (human); test: Induction of apoptosis in human HL-60 cells assessed as pro-caspase 3 cleavage at 10 uM by immunoblot analysis
[5] = system: HL-60 (human); test: Induction of apoptosis in human HL-60 cells at 10 uM after 72 hrs by FITC-conjugated annexin V staining-based FACS analysis

COC(=O)/C(C)=C1\C(=O)C[C@H]2[C@@]3(C)CC[C@H](O)C(C)(C)[C@@H]3CC[C@]12C
Activity [1]: inactive

CC(=O)O[C@H]1CC[C@@]2(C)[C@@H](CC[C@]3(C)/C(=C(C)/C=C/[C@H]4[C@H](C(C)(C)O)C[C@@H](O)[C@]4(C)O)C(=O)C[C@@H]23)C1(C)C [RHABDASTIN G]
pIC50 [2]: 4.36

COC(=O)/C(C)=C1\C(=O)C[C@H]2[C@@]3(C)CC[C@H](OC(C)=O)C(C)(C)[C@@H]3CC[C@]12C
Activity [1]: inactive

C=C(C)[C@@H]1C[C@H](O)[C@](C)(O)[C@H]1/C=C/C(C)=C1\C(=O)C[C@H]2[C@@]3(C)CC[C@H](OC(C)=O)C(C)(C)[C@@H]3CC[C@]12C [RHABDASTIN D]
Activity [3]: inactive
Activity [4]: Active
Activity [5]: 18%
pIC50 [2]: 4.68

C=C(C)[C@@H]1C[C@@H](OC(C)=O)[C@](C)(OC(C)=O)[C@H]1/C=C/C(C)=C1\C(=O)C[C@H]2[C@@]3(C)CC[C@H](OC(C)=O)C(C)(C)[C@@H]3CC[C@]12C [RHABDASTIN D DIACETATE]
pIC50 [2]: 4.96

COC(=O)/C(C)=C1\C(=O)C[C@H]2[C@@]3(C)CC[C@H](OC(C)=O)[C@](C)(C(=O)OC)[C@@H]3CC[C@]12C
Activity [1]: inactive

C=C(C)[C@@H]1C[C@@H](O)[C@](C)(O)[C@H]1/C=C/C(C)=C1\C(=O)C[C@H]2[C@@]3(C)CC[C@H](OC(C)=O)C(C)(C)[C@@H]3CC[C@]12C [RHABDASTIN E]
Activity [3]: inactive
Activity [4]: Active
Activity [5]: 17%
pIC50 [2]: 4.54
